Converted amounts (≈) assume the structure as drawn. Read-outs that look alike come from different tables or passages of the source.
Columns and labels:
[1] = system: S. aureus cystic fibrosis clinical isolates; experiment: MIC for CF clinical isolates; assay type: cell-based
[2] = system: S. aureus ATCC25923 biofilms; experiment: Biofilm inhibition assay (CFU counting, CLSM); assay type: cell-based
[3] = system: S. aureus ATCC25923; experiment: Single-cell time-lapse microscopy, cell area; assay type: cell-based; details: 2 × MIC (4 μg/mL), 5 h
Method: page 19: […] MIC method. […] The cultures were incubated at 37°C, and aliquots were […] Serial dilutions were spread on LB solid medium and the plates were incubated at 37°C O/N. Then, the number of colonies was determined. Killing curves were constructed by plotting the log10 CFU/ml vs. time. Bactericidal activity was defined as a reduction of 99.9% (≥3 log 10) of the total number of CFU/ml in the original inoculum (NCCLS, 1999). Bacteriostatic activity was defined as maintenance of the original inoculum concentration or a reduction of less than 99.9% (<3 log10) of the total number of CFU/ml in the original inoculum. Live cell imaging experiments […] Cells were diluted to OD of 0.02 in fresh TSB containing in the case of strain TD276 anhydrotetracycline 0.4 μM to induce the expression of mCherryFtsZ. After 1 hour of incubation at 37°C 2 μl of the culture was spotted onto an agar pad prepared with TSB and […] For time-lapse microscopy experiments, an inverted widefield microscope (Leica DMi8S) equipped with a 100× oil immersion objective (HC PL FLUOTAR 100x/1.32 OIL) was used. […] Images were recorded at 15-min intervals and up to 5 h. Bacteria were visualized in phase- contrast and fluorescence with the required parameters. […] S. aureus […] in fluorescence (with the required parameters for Hoechst and mCherry) using a 160x objective (HC PL APO S19

[4] = system: mammalian tubulin; experiment: Tubulin polymerization assay, fluorescence based; assay type: biochemical; details: for Vmax of tubulin polymerization: DMSO control 3.78
[5] = system: S. aureus TD276; experiment: MIC against the FtsZ-mCherry strain; assay type: cell-based; details: Staphylococcus aureus
[6] = target: T1, FtsZSa (Staphylococcus aureus, UniProt P0A031); experiment: FtsZSa polymerization, 90° light scattering
T1 sequence (P0A031 1-390): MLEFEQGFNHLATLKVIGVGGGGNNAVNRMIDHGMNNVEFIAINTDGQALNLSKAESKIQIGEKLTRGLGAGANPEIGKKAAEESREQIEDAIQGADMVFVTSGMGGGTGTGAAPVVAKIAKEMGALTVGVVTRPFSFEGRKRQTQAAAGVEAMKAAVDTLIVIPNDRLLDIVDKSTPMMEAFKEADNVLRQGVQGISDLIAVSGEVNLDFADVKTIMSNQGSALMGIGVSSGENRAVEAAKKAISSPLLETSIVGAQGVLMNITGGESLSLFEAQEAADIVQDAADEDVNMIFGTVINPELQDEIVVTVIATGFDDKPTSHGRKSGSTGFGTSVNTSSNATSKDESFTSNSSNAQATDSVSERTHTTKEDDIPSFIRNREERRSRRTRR

[7] = system: A. baumannii ATCC19606; experiment: MIC / checkerboard with PaβN; assay type: cell-based
[8] = system: P. aeruginosa PAO1, K. pneumoniae ATCC13883, and A. baumannii ATCC19606; experiment: MIC of C11 with PAβN, Gram-negative panel as a whole; assay type: cell-based; details: efflux pump inhibitor PAβN present
[9] = system: CFBE41o- cells; experiment: MTT cell viability assay on CFBE41o-; details: CFBE41o-, 12.5 μM (4.8 μg/mL), 6 h
[10] = MTT cell viability assay on CFBE41o-; details: human, CFBE41o- cells

Question: Which MIC ([1]; S. aureus BG8 MRSA, single drug) does the source give for `COc1ccc(Cc2nnc(SC3=CS(=O)(=O)c4ccccc43)o2)cc1` [C11] here?
Answer: Its MIC is 2 µg/mL (≈ 5.18 µM).

Question: What about the MIC ([1]; S. aureus BG9 MRSA, single drug) of the same compound?
Answer: Its MIC is 2 µg/mL (≈ 5.18 µM).

Question: And the MIC ([1]; S. aureus BG10 MRSA, single drug)?
Answer: The MIC was 2 µg/mL (≈ 5.18 µM).

Question: And the MIC ([1]; Staphylococcus aureus, MRSA, S. aureus BG6 MRSA, read-out: MIC)?
Answer: Its MIC is 2 µg/mL (≈ 5.18 µM).

Question: And the MIC ([1]; Staphylococcus aureus, MRSA, S. aureus BG7 MRSA smv, read-out: MIC)?
Answer: Its MIC is 4 µg/mL (≈ 10.4 µM).

Question: And the MIC ([1]; Staphylococcus aureus, MRSA, S. aureus BG8 MRSA, single drug, read-out: MIC)?
Answer: The MIC was 2 µg/mL (≈ 5.18 µM).

Question: And the MIC ([1]; Staphylococcus aureus, MRSA, S. aureus BG9 MRSA, single drug, read-out: MIC)?
Answer: Its MIC is 2 µg/mL (≈ 5.18 µM).

Question: What about the MIC ([1]; Staphylococcus aureus, MRSA, S. aureus BG10 MRSA, single drug, read-out: MIC) of the same compound?
Answer: Its MIC is 2 µg/mL (≈ 5.18 µM).

Question: What about the MIC ([1]; Staphylococcus aureus, S. aureus BG1, read-out: MIC) of the same compound?
Answer: Its MIC is 2 µg/mL (≈ 5.18 µM).

Question: What about the MIC ([1]; Staphylococcus aureus, S. aureus BG2, read-out: MIC) of the same compound?
Answer: The MIC was 4 µg/mL (≈ 10.4 µM).

Question: And the MIC ([1]; Staphylococcus aureus, S. aureus BG3, read-out: MIC)?
Answer: Its MIC is 4 µg/mL (≈ 10.4 µM).

Question: And the MIC ([1]; Staphylococcus aureus, S. aureus BG4, read-out: MIC)?
Answer: The MIC was 8 µg/mL (≈ 20.7 µM).

Question: And the MIC ([1]; Staphylococcus aureus, S. aureus BG5, read-out: MIC)?
Answer: Its MIC is 8 µg/mL (≈ 20.7 µM).

Question: And the MIC ([1]; Staphylococcus aureus, S. aureus SA1, read-out: MIC)?
Answer: Its MIC is 4 µg/mL (≈ 10.4 µM).

Question: And the MIC ([1]; Staphylococcus aureus, S. aureus SA2, read-out: MIC)?
Answer: Its MIC is 4 µg/mL (≈ 10.4 µM).

Question: What about the MIC ([1]; Staphylococcus aureus, S. aureus SA3, read-out: MIC) of the same compound?
Answer: The MIC was 2 µg/mL (≈ 5.18 µM).

Question: What about the MIC ([1]; Staphylococcus aureus, S. aureus SA4, read-out: MIC) of the same compound?
Answer: The MIC was 2 µg/mL (≈ 5.18 µM).

Question: What about the MIC ([1]; Staphylococcus aureus, S. aureus SA5, read-out: MIC) of the same compound?
Answer: Its MIC is 4 µg/mL (≈ 10.4 µM).

Question: And the MIC ([1]; Staphylococcus aureus, S. aureus SA6, read-out: MIC)?
Answer: The MIC was 2 µg/mL (≈ 5.18 µM).

Question: And the MIC ([1]; Staphylococcus aureus, S. aureus SA7, read-out: MIC)?
Answer: The MIC was 2 µg/mL (≈ 5.18 µM).

Question: What about the MIC ([1]; Staphylococcus aureus, S. aureus SA8, read-out: MIC) of the same compound?
Answer: The MIC was 2 µg/mL (≈ 5.18 µM).

Question: And the MIC ([1]; Staphylococcus aureus, S. aureus SA9, read-out: MIC)?
Answer: The MIC was 4 µg/mL (≈ 10.4 µM).

Question: What about the MIC ([1]; Staphylococcus aureus, S. aureus SA10, read-out: MIC) of the same compound?
Answer: The MIC was 2 µg/mL (≈ 5.18 µM).

Question: And the MIC ([1]; Staphylococcus aureus, S. aureus SA11, read-out: MIC)?
Answer: The MIC was 4 µg/mL (≈ 10.4 µM).

Question: What about the MIC ([1]; Staphylococcus aureus, S. aureus SA12, read-out: MIC) of the same compound?
Answer: The MIC was 4 µg/mL (≈ 10.4 µM).

Question: And the MIC ([1]; Staphylococcus aureus, S. aureus SA13, read-out: MIC)?
Answer: The MIC was 4 µg/mL (≈ 10.4 µM).

Question: And the MIC ([1]; Staphylococcus aureus, S. aureus SA14, read-out: MIC)?
Answer: The MIC was 2 µg/mL (≈ 5.18 µM).

Question: And the MIC ([1]; Staphylococcus aureus, S. aureus SA15, read-out: MIC)?
Answer: The MIC was 4 µg/mL (≈ 10.4 µM).

Question: What about the MIC ([1]; Staphylococcus aureus, S. aureus SA16, read-out: MIC) of the same compound?
Answer: The MIC was 4 µg/mL (≈ 10.4 µM).

Question: And the MIC ([1]; Staphylococcus aureus, S. aureus SA17, read-out: MIC)?
Answer: Its MIC is 2 µg/mL (≈ 5.18 µM).

Question: And the MIC ([1]; Staphylococcus aureus, S. aureus SA18, read-out: MIC)?
Answer: The MIC was 4 µg/mL (≈ 10.4 µM).

Question: What about the MIC ([1]; Staphylococcus aureus, S. aureus SA19, read-out: MIC) of the same compound?
Answer: Its MIC is 2 µg/mL (≈ 5.18 µM).

Question: And the MIC ([1]; Staphylococcus aureus, S. aureus SA20, read-out: MIC)?
Answer: Its MIC is 4 µg/mL (≈ 10.4 µM).

Question: What about the MIC ([1]; Staphylococcus aureus, S. aureus SA21, read-out: MIC) of the same compound?
Answer: The MIC was 2 µg/mL (≈ 5.18 µM).

Question: What about the MIC ([1]; Staphylococcus aureus, S. aureus SA22, read-out: MIC) of the same compound?
Answer: Its MIC is 2 µg/mL (≈ 5.18 µM).

Question: What about the MIC ([1]; Staphylococcus aureus, S. aureus SA23, read-out: MIC) of the same compound?
Answer: The MIC was 4 µg/mL (≈ 10.4 µM).

Question: What about the MIC ([1]; Staphylococcus aureus, S. aureus SA24, read-out: MIC) of the same compound?
Answer: The MIC was 2 µg/mL (≈ 5.18 µM).

Question: What about the MIC ([1]; Staphylococcus aureus, S. aureus SA25, read-out: MIC) of the same compound?
Answer: Its MIC is 2 µg/mL (≈ 5.18 µM).

Question: What about the MIC ([1]; Staphylococcus aureus, panel of clinical isolates from cystic fibrosis patients, read-out: MIC values for the vast majority of the clinical isolates) of the same compound?
Answer: The MIC was 2 to 4 µg/mL (≈ 5.18 to 10.4 µM).

Question: And the “Biofilm formation by CLSM and COMSTAT2” value ([2]; 2 μg/mL)?
Answer: The value was “only slightly affected biofilm formation”.

Question: And the “Biofilm formation by CFU counting” value ([2]; 2- or 4-fold the MIC (4–8 μg/mL))?
Answer: Its value is “almost completely inhibit biofilm formation”.

Question: What about the “Biofilm formation by CLSM and COMSTAT2” value ([2]; 4 and 8 μg/mL) of the same compound?
Answer: The value was “almost completely abolished it”.

Question: And the “Area of the cells compared to untreated cells” value [3]?
Answer: The value was “significantly larger”.

Question: What about the “Vmax of tubulin polymerization” value ([4]; 5 μM) of the same compound?
Answer: The value was 3.5 mOD/min.

Question: And the “Vmax of tubulin polymerization” value ([4]; 10 μM)?
Answer: The value was 3 mOD/min.

Question: And the “Decrease of tubulin polymerization” value ([4]; 25 μM (9.6 μg/mL), highest tested concentration)?
Answer: Its value is 20%.

Question: And the “Vmax of tubulin polymerization” value ([4]; 25 μM)?
Answer: Its value is 2.8 mOD/min.

Question: What about the MIC [5] of the same compound?
Answer: Its MIC is 2 µg/mL (≈ 5.18 µM).

Question: And the IC50 [6]?
Answer: The IC50 was 48 µM.

Question: And the MIC ([7]; A. baumannii ATCC19606, C11 alone)?
Answer: Its MIC is ≥ 128 µg/mL.

Question: And the MIC ([7]; Acinetobacter baumannii, ATCC19606, A. baumannii ATCC19606, + PaβN 64 µg/ml, read-out: MIC)?
Answer: Its MIC is 1 µg/mL.

Question: And the MIC ([7]; Acinetobacter baumannii, ATCC19606, A. baumannii ATCC19606, C11 alone, read-out: MIC)?
Answer: The MIC was ≥ 128 µg/mL.

Question: What about the “MIC values in the presence of PAβN” value [8] of the same compound?
Answer: The value was 1 to 16 µg/mL.

Question: And the “Percentage of live cells (MTT)” value [9]?
Answer: The value was “higher than 90%”.

Question: What about the viability at 6 h, 25 µM [10] of the same compound?
Answer: The viability at 6 h, 25 µM was 65%.

Question: What about the viability at 24 h, 25 µM [10] of the same compound?
Answer: The viability at 24 h, 25 µM was 25%.

Reference: PMC11998009, “Identification of a New FtsZ Inhibitor by Virtual Screening, Mechanistic Insights, and Structure–Activity Relationship Analyses” (ACS Infectious Diseases, 2025)
